Data: PubChem BioAssay (NCI)
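Interpolation was linear, between the two tested concentrations surrounding the appropriate level; five concentrations were tested over 48 hours in 96-well plates. Definition used: TGI = concentration required for complete inhibition of growth.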

Legend:
Test in all cases: inhibition of tumour cell growth, NCI panel, 48 h
TK-10 renal = system: TK-10 renal
SNB-19 CNS = system: SNB-19 CNS
SK-MEL-5 melanoma = system: SK-MEL-5 melanoma
SNB-75 CNS = system: SNB-75 CNS
A498 renal = system: A498 renal
NCI-H460 lung = system: NCI-H460 lung
HOP-62 NSCLC = system: HOP-62 NSCLC
SF-295 CNS = system: SF-295 CNS
KM20L2 colon = system: KM20L2 colon
OVCAR-5 ovarian = system: OVCAR-5 ovarian
HCC-2998 colon = system: HCC-2998 colon
NCI-H23 lung = system: NCI-H23 lung
RXF-631 renal = system: RXF-631 renal
UACC-257 melanoma = system: UACC-257 melanoma
RPMI-8226 leukemia = system: RPMI-8226 leukemia
ACHN renal = system: ACHN renal
SK-MEL-2 melanoma = system: SK-MEL-2 melanoma
COLO 205 colon = system: COLO 205 colon
KM12 colon = system: KM12 colon
OVCAR-8 ovarian = system: OVCAR-8 ovarian
IGROV1 ovarian = system: IGROV1 ovarian
786-0 renal = system: 786-0 renal
MALME-3M melanoma = system: MALME-3M melanoma
HCT-116 colon = system: HCT-116 colon
A549 NSCLC = system: A549 NSCLC
K-562 leukemia = system: K-562 leukemia
SW-620 colon = system: SW-620 colon
UO-31 renal = system: UO-31 renal
UACC-62 melanoma = system: UACC-62 melanoma
RXF 393 renal = system: RXF 393 renal
LOX IMVI melanoma = system: LOX IMVI melanoma
DMS 114 small cell lung = system: DMS 114 small cell lung
CCRF-CEM leukemia = system: CCRF-CEM leukemia
SK-OV-3 ovarian = system: SK-OV-3 ovarian
DLD-1 colon = system: DLD-1 colon
SN12C renal = system: SN12C renal
HCT-15 colon = system: HCT-15 colon
HOP-92 NSCLC = system: HOP-92 NSCLC
NCI-H522 lung = system: NCI-H522 lung
M14 melanoma = system: M14 melanoma
OVCAR-3 ovarian = system: OVCAR-3 ovarian
SF-539 CNS = system: SF-539 CNS
SF-268 CNS = system: SF-268 CNS
U251 CNS = system: U251 CNS
SR leukemia = system: SR leukemia
SK-MEL-28 melanoma = system: SK-MEL-28 melanoma
M19-MEL melanoma = system: M19-MEL melanoma
MOLT-4 leukemia = system: MOLT-4 leukemia
HOP-18 NSCLC = system: HOP-18 NSCLC
CAKI-1 renal = system: CAKI-1 renal
HL-60(TB) leukemia = system: HL-60(TB) leukemia
HT29 colon = system: HT29 colon
XF 498 CNS = system: XF 498 CNS
NCI-H226 lung = system: NCI-H226 lung
EKVX NSCLC = system: EKVX NSCLC
LXFL 529 NSCLC = system: LXFL 529 NSCLC
OVCAR-4 ovarian = system: OVCAR-4 ovarian
DMS 273 small cell lung = system: DMS 273 small cell lung
SNB-78 CNS = system: SNB-78 CNS

CC(=O)OCC1=CC2CCC3C(C)(CCC[C@]3(C)COC(C)=O)C23CC[C@H]1C3 (stereo not given in full)
TGI (TK-10 renal): > 100 µM | TGI (SNB-19 CNS): > 100 µM | TGI (SK-MEL-5 melanoma): 58.8 µM | TGI (SNB-75 CNS): > 100 µM | TGI (A498 renal): > 100 µM | TGI (NCI-H460 lung): > 100 µM | TGI (HOP-62 NSCLC): > 100 µM | TGI (SF-295 CNS): > 100 µM | TGI (KM20L2 colon): > 100 µM | TGI (OVCAR-5 ovarian): > 100 µM | TGI (HCC-2998 colon): 86.3 µM | TGI (NCI-H23 lung): > 100 µM | TGI (RXF-631 renal): > 100 µM | TGI (UACC-257 melanoma): > 100 µM | TGI (RPMI-8226 leukemia): 63.1 µM | TGI (ACHN renal): > 100 µM | TGI (SK-MEL-2 melanoma): > 100 µM | TGI (COLO 205 colon): 49.3 µM | TGI (KM12 colon): > 100 µM | TGI (OVCAR-8 ovarian): > 100 µM | TGI (IGROV1 ovarian): > 100 µM | TGI (786-0 renal): > 100 µM | TGI (MALME-3M melanoma): > 100 µM | TGI (HCT-116 colon): > 100 µM | TGI (A549 NSCLC): > 100 µM | TGI (K-562 leukemia): 73.3 µM | TGI (SW-620 colon): > 100 µM | TGI (UO-31 renal): > 100 µM | TGI (UACC-62 melanoma): > 100 µM | TGI (RXF 393 renal): 93 µM | TGI (LOX IMVI melanoma): 62.3 µM | TGI (DMS 114 small cell lung): 44.3 µM | TGI (CCRF-CEM leukemia): 93.3 µM | TGI (SK-OV-3 ovarian): > 100 µM | TGI (DLD-1 colon): > 100 µM | TGI (SN12C renal): > 100 µM | TGI (HCT-15 colon): > 100 µM | TGI (HOP-92 NSCLC): 90.2 µM | TGI (NCI-H522 lung): 45.4 µM | TGI (M14 melanoma): > 100 µM | TGI (OVCAR-3 ovarian): > 100 µM | TGI (SF-539 CNS): > 100 µM | TGI (SF-268 CNS): > 100 µM | TGI (U251 CNS): > 100 µM | TGI (SR leukemia): 76.5 µM | TGI (SK-MEL-28 melanoma): > 100 µM | TGI (M19-MEL melanoma): > 100 µM | TGI (MOLT-4 leukemia): 51.5 µM | TGI (HOP-18 NSCLC): > 100 µM | TGI (CAKI-1 renal): > 100 µM | TGI (HL-60(TB) leukemia): 53.6 µM | TGI (HT29 colon): > 100 µM | TGI (XF 498 CNS): 81.9 µM | TGI (NCI-H226 lung): > 100 µM | TGI (EKVX NSCLC): > 100 µM | TGI (LXFL 529 NSCLC): > 100 µM | TGI (OVCAR-4 ovarian): > 100 µM | TGI (DMS 273 small cell lung): > 100 µM

CCc1ccccc1NC(=O)C(=O)C(C#N)c1c(Cl)cccc1Cl (stereo not given)
TGI (TK-10 renal): > 100 µM | TGI (SNB-19 CNS): > 100 µM | TGI (SNB-75 CNS): > 100 µM | TGI (SF-295 CNS): > 100 µM | TGI (KM20L2 colon): > 100 µM | TGI (NCI-H23 lung): > 100 µM | TGI (RXF-631 renal): > 100 µM | TGI (UACC-257 melanoma): > 100 µM | TGI (RPMI-8226 leukemia): > 100 µM | TGI (ACHN renal): > 100 µM | TGI (SK-MEL-2 melanoma): > 100 µM | TGI (KM12 colon): > 100 µM | TGI (IGROV1 ovarian): > 100 µM | TGI (786-0 renal): > 100 µM | TGI (MALME-3M melanoma): > 100 µM | TGI (HCT-116 colon): > 100 µM | TGI (A549 NSCLC): > 100 µM | TGI (K-562 leukemia): > 100 µM | TGI (SW-620 colon): > 100 µM | TGI (UO-31 renal): > 100 µM | TGI (UACC-62 melanoma): > 100 µM | TGI (LOX IMVI melanoma): > 100 µM | TGI (CCRF-CEM leukemia): > 100 µM | TGI (SK-OV-3 ovarian): > 100 µM | TGI (DLD-1 colon): > 100 µM | TGI (SN12C renal): > 100 µM | TGI (HCT-15 colon): > 100 µM | TGI (HOP-92 NSCLC): > 100 µM | TGI (NCI-H522 lung): > 100 µM | TGI (SNB-78 CNS): > 100 µM | TGI (M14 melanoma): > 100 µM | TGI (OVCAR-3 ovarian): > 100 µM | TGI (SF-539 CNS): > 100 µM | TGI (SF-268 CNS): > 100 µM | TGI (U251 CNS): > 100 µM | TGI (SR leukemia): > 100 µM | TGI (SK-MEL-28 melanoma): > 100 µM | TGI (M19-MEL melanoma): > 100 µM | TGI (MOLT-4 leukemia): > 100 µM | TGI (CAKI-1 renal): > 100 µM | TGI (HL-60(TB) leukemia): > 100 µM | TGI (HT29 colon): > 100 µM | TGI (XF 498 CNS): > 100 µM | TGI (NCI-H226 lung): > 100 µM | TGI (EKVX NSCLC): > 100 µM | TGI (LXFL 529 NSCLC): > 100 µM | TGI (DMS 273 small cell lung): > 100 µM
